Assay: xn = mol fraction of the nth substance listed

CC1COC(=O)O1 (centres undefined) + CCCCCCCCn1cc[n+](C)c1.F[B-](F)(F)F
Settings	viscosity [mPa·s]
323.15 K, 99.7 kPa, x1 = 1	1.77

CCCCCCCCCC[n+]1ccn(C)c1.F[B-](F)(F)F + CCCCCCCCn1cc[n+](C)c1.[Br-] + O
298.15 K, 101 kPa
Settings	electrical conductivity [S/m]
x2 = 0.0007563, x1 = 0.0001261	0.4
x2 = 0.001655, x1 = 0.0002882	0.71
x2 = 0.00196, x1 = 0.0003423	0.81
x2 = 0.002283, x1 = 0.0003963	0.87
x2 = 0.002552, x1 = 0.0004503	0.94
x2 = 0.002857, x1 = 0.0005043	0.99
x2 = 0.003126, x1 = 0.0005583	1.04
x2 = 0.003341, x1 = 0.0005943	1.09
x2 = 0.003645, x1 = 0.0006483	1.14
x2 = 0.003877, x1 = 0.0006843	1.18
x2 = 0.004253, x1 = 0.0007563	1.23
x2 = 0.004574, x1 = 0.0008102	1.28
x2 = 0.004788, x1 = 0.0008462	1.31
x2 = 0.005092, x1 = 0.0009002	1.35
x2 = 0.005359, x1 = 0.0009541	1.4
x2 = 0.005626, x1 = 0.001008	1.43

CCC[N+]1(C)CCCC1.O=S(=O)([N-]S(=O)(=O)C(F)(F)F)C(F)(F)F + CCCCCC[N+]1(C)CCCC1.O=S(=O)([N-]S(=O)(=O)C(F)(F)F)C(F)(F)F
353.15 K, 101 kPa, x2 = 0
Settings	electrical conductivity [S/m]	viscosity [mPa·s]
–	1.76	11.6

O + CCCCCC[n+]1ccc(C)cc1.[Br-]
100 kPa, frequency 0.003 MHz, x2 = 0
Settings	electrical conductivity [S/m]
288.15 K	0.0001
308.15 K	0.00022

CCCC[n+]1ccn(C)c1.F[B-](F)(F)F + CCCCCC[n+]1ccn(C)c1.F[B-](F)(F)F
Settings	viscosity [mPa·s]
305.15 K, 101 kPa, x1 = 1	75.1

CN(CCO)CCO + CCCCCC[n+]1ccn(C)c1.F[B-](F)(F)F
101 kPa, x1 = 1
Settings	viscosity [mPa·s]
303.15 K	57.5
308.15 K	44.2
313.15 K	35

CC[P+](CC)(CC)COCCOC.c1c[n-]nn1 + CCCCCC[n+]1ccn(C)c1.O=S(=O)([N-]S(=O)(=O)C(F)(F)F)C(F)(F)F
100 kPa
Settings	viscosity [mPa·s]
278.15 K, x2 = 0.75	235
288.15 K, x2 = 0.25	136
293.15 K, x2 = 0.25	103
298.15 K, x2 = 0.75	76
303.15 K, x2 = 0.5	60

CN(CCO)CCO + CCCCCC[n+]1ccn(C)c1.O=S(=O)([N-]S(=O)(=O)C(F)(F)F)C(F)(F)F
101 kPa, x1 = 1
Settings	viscosity [mPa·s]
303.15 K	59.8
313.15 K	37.9
318.15 K	29.8

CC[n+]1ccn(C)c1.N#C[N-]C#N + CCCCO
100 kPa
Settings	viscosity [mPa·s]
298.15 K, x1 = 0.3006	3.16
303.15 K, x1 = 0.9012	8.7
308.15 K, x1 = 0.3006	2.29
308.15 K, x1 = 0.4008	2.52
308.15 K, x1 = 0.7012	4.34
308.15 K, x1 = 0.8016	5.5
313.15 K, x1 = 0.2007	1.97
313.15 K, x1 = 0.3006	2.03
318.15 K, x1 = 0.6014	2.39
323.15 K, x1 = 0.2007	1.56
323.15 K, x1 = 0.4008	1.71

CCCCCCCCn1cc[n+](C)c1.O=S(=O)([N-]S(=O)(=O)C(F)(F)F)C(F)(F)F + CCCCOC(C)=O
298.15 K, 100 kPa
Settings	electrical conductivity [S/m]	viscosity [mPa·s]
x2 = 0	0.131	90.3
x2 = 0.2414	0.194	–
x2 = 0.7054	–	6.46
x2 = 0.8427	0.361	–

CC1COC(=O)O1 (centres undefined) + CCCC[N+]1(C)CCCC1.O=S(=O)([N-]S(=O)(=O)C(F)(F)F)C(F)(F)F
101 kPa, x1 = 1
Settings	electrical conductivity [S/m]	viscosity [mPa·s]
293.15 K	0.002	2.72
303.15 K	0.002	2.29
313.15 K	0.002	2

CCCC[N+]1(C)CCCC1.N#C[N-]C#N + CCCC[N+]1(C)CCCC1.O=S(=O)([N-]S(=O)(=O)C(F)(F)F)C(F)(F)F
101 kPa, frequency 0 MHz, x2 = 0.5
Settings	electrical conductivity [S/m]
318 K	0.962
323 K	1.12

101 kPa, x2 = 0.5
Settings	viscosity [mPa·s]
318 K	22.7
323 K	19.7

CCC[N+]1(C)CCCC1.O=S(=O)([N-]S(=O)(=O)C(F)(F)F)C(F)(F)F + CCCC[N+]1(C)CCCC1.O=S(=O)([N-]S(=O)(=O)C(F)(F)F)C(F)(F)F
101 kPa
Settings	electrical conductivity [S/m]	viscosity [mPa·s]
293.15 K, x2 = 0.25	0.248	81.4
333.15 K, x2 = 0	1.18	18.8
333.15 K, x2 = 0.75	1.01	20.7
353.15 K, x2 = 0.5	1.5	12.2

CCCC[N+]1(C)CCCC1.N#C[N-]C#N + CCCC[N+]1(C)CCCC1.O=S(=O)([N-]S(=O)(=O)C(F)(F)F)C(F)(F)F + O=S(=O)([N-]S(=O)(=O)C(F)(F)F)C(F)(F)F.[Li+]
electrical conductivity [S/m], 101 kPa, frequency 0 MHz
Settings	298 K	303 K	308 K	313 K	318 K	323 K
x2 = 0.475, x1 = 0.475	0.481	0.572	0.67	0.788	0.912	1.05
x2 = 0.5, x1 = 0.5	0.565	0.642	0.746	0.857	0.962	1.12

viscosity [mPa·s], 101 kPa
Settings	298 K	303 K	308 K	313 K	318 K	323 K	328 K
x2 = 0.475, x1 = 0.475	60.7	51.9	42.6	35.9	31.2	27.6	24.2
x2 = 0.5, x1 = 0.5	51.3	–	32	26.7	22.7	19.7	17.06

CC[n+]1ccn(C)c1.N#C[N-]C#N + CCCC[N+](C)(CCCC)CCCC.N#C[N-]C#N
101 kPa, x1 = 1
Settings	viscosity [mPa·s]
303.15 K	12.97
323.15 K	8.28
343.15 K	5.49
353.15 K	4.63

O=C1CCCCCN1 + CCCC[N+](CCCC)(CCCC)CCCC.[Cl-]
101 kPa, x1 = 0.5
Settings	electrical conductivity [S/m]
313.15 K	0.2162
315.65 K	0.257
328.15 K	0.5612

O=C1CCCCCN1 + CCCC[N+](CCCC)(CCCC)CCCC.[Cl-] + O
electrical conductivity [S/m], 101 kPa
Settings	x1 = 0.0018, x2 = 0.0018	x1 = 0.0197, x2 = 0.0197	x1 = 0.0481, x2 = 0.0481	x1 = 0.0862, x2 = 0.0862	x1 = 0.146, x2 = 0.146
293.15 K	–	0.798	–	–	0.593
295.65 K	–	0.788	–	–	0.6211
298.15 K	–	0.778	0.799	0.775	0.639
300.65 K	–	0.769	0.8	0.7743	0.6505
303.15 K	–	0.768	0.795	0.778	0.659
305.65 K	–	0.767	0.788	0.775	0.667
308.15 K	0.219	0.767	0.7825	0.7733	0.677
310.65 K	0.219	0.763	0.779	0.768	0.686
313.15 K	0.221	0.758	0.776	0.7623	0.6923
315.65 K	0.222	0.753	0.77	0.757	0.695
318.15 K	0.222	0.744	0.7621	0.7513	0.699
320.65 K	0.223	0.735	0.7545	0.7434	0.699
323.15 K	0.223	0.725	0.746	0.736	0.698
325.65 K	0.224	0.716	0.737	0.727	0.697
328.15 K	0.224	0.704	–	0.719	0.6938
330.65 K	0.224	0.693	–	0.7105	0.687
333.15 K	0.225	0.681	–	0.7023	0.6811

O + CCCC[n+]1ccc(C)cc1.[Br-]
100 kPa, frequency 0.003 MHz, x2 = 0
Settings	electrical conductivity [S/m]
288.15 K	0.0001
308.15 K	0.00022

CC1COC(=O)O1 (centres undefined) + CCCC[n+]1ccccc1.N#C[N-]C#N
101 kPa, x2 = 0
Settings	viscosity [mPa·s]
318.15 K	1.724
333.15 K	1.366

CCCC[n+]1ccn(C)c1.F[B-](F)(F)F + CCCC[n+]1ccn(C)c1.COS(=O)(=O)[O-]
101 kPa, x1 = 1
Settings	viscosity [mPa·s]
302.15 K	88.7
305.15 K	76.8

CN(CCO)CCO + CCCC[n+]1ccn(C)c1.F[B-](F)(F)F
101 kPa
Settings	viscosity [mPa·s]
293.15 K, x2 = 0.8999	105.6
303.15 K, x2 = 0.3	43.7
303.15 K, x2 = 0.8999	63.5
323.15 K, x2 = 0.1974	17.8
323.15 K, x2 = 0.6	18.8
333.15 K, x2 = 0.1974	12.09
333.15 K, x2 = 0.7998	16.8

Source: the CheMixHub ionic liquid set
